Patent US8853264B2, “Use of lignan compounds for treating or preventing inflammatory disease” (Newtree Industry Co., Ltd., priority 2005, dated 2014)

Assays:
[1] = test system: RAW264.7 cells; assay: MTT cytotoxicity assay on RAW264.7 cells; type: cell-based; details: macelignan 1-20 μM, 24 hours
Experimental: In order to examine the effect of macelignan obtained in <Example 1> on the production of inflammatory response mediators, the macrophage RAW264.7 cell line was used. The macrophage RAW264.7 cell line (ATCC TIB-71) was purchased from American Tissue Culture Collection (Rockville, Md., USA). The cell line was cultured in DMEM (Dulbecco's Modified Eagle's Medium, Gibco, USA) supplemented with 10% heat inactivated FBS (fetal bovine serum, Gibco, USA), 100 U/ml penicillin G and 100 μg/ml streptomycin, in a 5% CO2 incubator at 37° C. In order to examine the effect of the inventive macelignan on the viability of RAW 264.7 cells, analysis was performed based on the reduction of MTT changed into a purple formazan product by mitochondrial dehydrogenase (Hayon T. et al., Leuk. Lymphoma. 44(11): 1957-1962, 2003). 1×10^6 cells/ml of RAW264.7 cells were inoculated into RPMI 1640 medium, and after 6 hours, were treated with the inventive macelignan at concentrations up to 1-80 μM/ml. After 24 hours, the viability of the cells was measured by the MTT assay.

[2] = test system: IgE; assay: Total IgE in serum, mite antigen-induced atopic dermatitis; type: in vivo, NC/Nga mice; details: for IgE: 2 weeks, serum; for total IgE level compared to the positive control group: p<0.01
Experimental: 8-week-old NC/Nga mice (20-25 g) were purchased from Chungang Lab. Animal. After adapting for 1 week, the NC/Nga mouse was anesthetized with 90% ethyl ether (Ducsan, Korea) and hair was removed from the occipital region and the back of the mouse using depilatory cream (Reckitt Benckiser, France). After allowing micro wound healing for a day, 100 mg of mite antigen cream (Biostir, Inc. Japan) comprising Dermatophagoides farina, which causes atopic dermatitis, as a main ingredient was evenly applied on the ear, occipital region and back, 3 times a week (for 5 weeks, from week 9 to week 13). 2 hours before application of the mite antigen cream, 4% SDS solution was applied at the same area to increase transdermal absorption of the mite antigen cream by inducing the breakdown of skin fats and cuticle layer. From week 3 following the application, IgE value was measured to quantitate the degree of atopic dermatitis. Also during the drug treatment period (week 12 to week 13), 100 mg of the mite antigen cream was applied 3 times a week to prevent spontaneous healing of the atopic dermatitis.
In order to induce atopic dermatitis, 100 mg of mite antigen cream was applied on the ear, occipital region and back of NC/Nga mouse (9 to 11 weeks old), except for the negative control group, 3 times a week, 2 hours after the application of 4% SDS solution. Three weeks later, it was observed whether atopic dermatitis was induced by checking skin rash, erythema, cornification, or the like. Atopic dermatitis was induced in all groups except for the negative control group. For drug treatment and evaluation of therapeutic effect, mice were grouped into 12 groups, 6 oral administration groups and 6 topical application groups (each consisting of negative control group, positive control group, macelignan low conc. group, macelignan high conc. group, nutmeg extract low conc. group, and nutmeg extract high conc. group), with n=5 per cage. During the following drug treatment and evaluation period of 2 weeks (12 to 13 weeks old), the negative control groups, which had not been treated with 4% SDS solution and mite antigen cream, were treated with physiological saline (oral administration group) or base cream (topical application group) every day, and the positive control groups, which had been treated with 100 mg of mite antigen cream 2 hours after application of 4% SDS solution, 3 times every week, were treated with physiological saline (oral administration group) or base cream (topical application group). The oral administration groups were treated with 100 mg of mite antigen cream 2 hours after application of 4% SDS solution, 3 times every week, and were treated with macelignan or nutmeg extract at low concentration (50 mg/kg/day) or high concentration (150 mg/kg/day) every day. The topical application groups were treated with 100 mg of mite antigen cream 2 hours after application of 4% SDS solution, 3 times every week, and were treated with macelignan cream or nutmeg extract cream at low concentration (20 mg/kg/day) or high concentration (60 mg/kg/day) every day. Transepidermal water loss (TEWL), skin hydration and erythema index were measured one day before the end of the test. Serum was obtained by retro-orbital blood sampling. After the end of the test (14 weeks old) spleen and skin tissues from occipital region and back were sampled and stored at −70° C. ALN (axillary lymph node) was stored in DMEM containing 2% FBS (fetal bovine serum). The skin tissues were stored in 10% formalin solution.
Blood was taken by retro-orbital blood sampling using a capillary tube (Chase Scientific Glass, Inc., USA), which was centrifuged at 13,000 rpm to obtain serum. IgE level was measured using a mouse IgE ELISA kit (Immunology Consultants Laboratory, Inc., USA).

[3] = test system: NO; assay: NO production in RAW264.7 cells activated with LPS (Griess); type: cell-based
Experimental: RAW264.7 cells were diluted at a concentration of 1×10^6 cell/ml and then inoculated into RPMI 1640 medium. After 5 hours, the inventive macelignan was added to the medium at each of a concentration of 1-20 μM, followed by incubation for 2 hours. Then, the medium was treated with LPS (10 μg/ml) and incubated for 24 hours. A control group was treated only with LPS. The production of NO was quantified by measuring NO2^−, a reaction product of NO, using the remains of cell culture (Han et al., Life Sci., 75(6): 675-684, 2004). 100 μl of the remains of cell culture and the same volume of Greiss reagent (0.5% sulfanilyamide, 0.05% N-(1-naphthyl)ethylene diamine dihydrochloride/2.5% H3PO4) were mixed with each other on a 96-well tissue culture plate and allowed to react in a dark place for 10 minutes. Then, the absorbance of the sample was measured at 550 nm using the ELISA microplate reader. […] All tests were repeated at three times, and then quantified by student's t-test.

[4] = test system: PGE2; assay: PGE2 production in macrophages activated by LPS (ELISA); type: cell-based
Experimental: First, 1×10^6 cells/ml of RAW264.7 cells were inoculated into a 96-well tissue culture plate and left to stand at room temperature for 5 hours. Then, the inventive macelignan was added to the cells at each of concentrations of 1-20 μM and incubated for 2 hours. A negative control group was not treated with anything, and a positive control group was treated with curcumin (isolated from Curcuma longa; Sigma) reported to have PGE2 inhibitory activity. Then, the cells were treated with 1 μg/ml of LPS and cultured for 18 hours. The production of PGE2 in the macrophages was quantified by an assay kit (R&D System Inc, Minneapolis, USA) using an ELISA method (Chen et al., Biochem. Pharmacol., 68: 1089-1100, 2002).

[5] = Clinical visual evaluation of skin lesion, atopic dermatitis model; type: in vivo, NC/Nga mice
Experimental: In order to induce atopic dermatitis, 100 mg of mite antigen cream was applied on the ear, occipital region and back of NC/Nga mouse (9 to 11 weeks old), except for the negative control group, 3 times a week, 2 hours after the application of 4% SDS solution. Three weeks later, it was observed whether atopic dermatitis was induced by checking skin rash, erythema, cornification, or the like. Atopic dermatitis was induced in all groups except for the negative control group. For drug treatment and evaluation of therapeutic effect, mice were grouped into 12 groups, 6 oral administration groups and 6 topical application groups (each consisting of negative control group, positive control group, macelignan low conc. group, macelignan high conc. group, nutmeg extract low conc. group, and nutmeg extract high conc. group), with n=5 per cage. […] Transepidermal water loss (TEWL), skin hydration and erythema index were measured one day before the end of the test. […]
Prior to the end of the experiment, the lesions of the mice were photographed. The change of the skin lesion was evaluated visually.

[6] = oral administration 50 and 150 mg/kg
[7] = topical application 20 and 60 mg/kg

COc1cc(C[C@H](C)[C@H](C)Cc2ccc3c(c2)OCO3)ccc1O (single isomer, unassigned) [macelignan]
viability of the RAW264.7 cells [1]: no significant effect
IgE ([2]; oral administration 50 mg/kg/day): 19.6 ± 13.5 µg/mL
IgE ([2]; oral administration 150 mg/kg/day): 16.6 ± 5.3 µg/mL
total IgE level compared to the positive control group [2, 6]: statistically significant decrease in total IgE level
total IgE level compared to the positive control group [2, 7]: statistically significant decrease in total IgE level
IgE ([2]; topical application (cream) 20 mg/kg/day): 22.1 ± 3.6 µg/mL
IgE ([2]; topical application (cream) 60 mg/kg/day): 18.6 ± 4.1 µg/mL
inhibition of NO production at low concentrations ([3]; 1 μM and 5 μM, P<0.01): excellent effects on the inhibition of NO production
production of NO at 20 μM ([3]; 20 μM macelignan): inhibited to an extent almost similar to that of the group treated with nothing
production of NO ([3]; 1-20 μM, LPS 10 μg/ml, 24 hours): concentration-dependently inhibited
production of PGE2 ([4]; 1-20 μM, LPS 1 μg/ml, 18 hours, effect shown even at 5 μM): concentration-dependently inhibited
PGE2 production-inhibitory effect compared with curcumin ([4]; positive control curcumin, P<0.05): almost similar to the case of treatment with curcumin
clinical visual evaluation of skin lesion [5, 6]: remarkable decrease in erythema/hemorrhage, dryness/scarring, edema, excoriation/erosion and lichenification and improvement in atopic dermatitis
clinical visual evaluation of skin lesion [5, 7]: remarkable decrease in erythema/hemorrhage, dryness/scarring, edema, excoriation/erosion and lichenification and improvement in atopic dermatitis
